{"source": "paper PMC2783557", "about": "(Brain, behavior, and immunity, 2009)", "key": {"Male CD-1 mice": {"system": "Male CD-1 mice", "assay": "Brain uptake", "assay_type": "in vivo, mouse", "settings": "indomethacin 20 mg/kg ip 30 min before LPS 3 mg/kg; n = 6-8/group"}, "Tg2576 mice": {"system": "Tg2576 mice", "settings": "chronic treatment from 8-15 months of age, ref Sheng et al., 2003; cited from earlier work"}}, "data": [{"smiles": "COc1ccc2c(c1)c(CC(=O)O)c(C)n2C(=O)c1ccc(Cl)cc1", "note": "[Indomethacin]", "values": [{"measurement": "effect of LPS on brain uptake (influx) of I-Aβ", "setting": "Male CD-1 mice", "result": "did not reverse"}, {"measurement": "levels of soluble Aβ40 and Aβ42 in the hippocampus and cortex", "setting": "Tg2576 mice", "result": "significantly reduce"}]}]}
